Assay results as given in patent US9340577B2, “HLA binding motifs and peptides and their uses” (priority 1992, dated 2016).
No end group written: not given here.

Experiments:
Experiment in all cases: biochemical
[1] = molecular target: DR1 (DRB1*0101) (Homo sapiens, UniProt P01903+P01911, A100R/D57E/F55L/F60I/F76Y/I96L/L162R/M171V/P40L/Q125E/R42F/V115G/Y59C); format: binding
[2] = molecular target: DR4w4 (DRB1*0401) (Homo sapiens, UniProt P01903+P01911, A100K/A169T/F76Y/I96L/K127E/L162R/M171V/N62H/P40V/Q125Y/R42H/S133A/S149N/S66Y/V115G/V209L/W38E); format: binding
[3] = molecular target: DRB1*0301 (Homo sapiens, UniProt P01903+P01911, A100K/A102G/A103R/A169T/F55Y/I96L/K41T/L162R/M171V/P40S/Q125H/Q178H/Q39Y/R42S/S66N/T106N/T262R/W38E/Y61H); format: binding
[4] = molecular target: DRB1*0405 (Homo sapiens, UniProt P01903+P01911, A100R/A169T/D86S/F76Y/I96L/K127E/L162R/M171V/N62H/P40V/Q125Y/R42H/S133A/S149N/S66Y/V115G/V209L/W38E); format: binding
[5] = molecular target: DRB1*0802 (Homo sapiens, UniProt P01903+P01911, A100R/A103L/A169T/F76Y/H45Y/I96F/K41T/L162R/M171V/P40S/Q125H/Q178H/Q39Y/Q99D/R218S/R42G/S66Y/V115G/W38E); format: binding
[6] = molecular target: DRB1*1501 (Homo sapiens, UniProt P01903+P01911); format: binding
[7] = molecular target: DRB4*0101 (Homo sapiens, UniProt P01903+P13762, G164S); format: binding
[8] = molecular target: DRB1*1101 (Homo sapiens, UniProt P01903+P01911, A100R/A169T/A87E/I96F/K41T/L162R/M171V/P40S/Q125H/Q178H/Q39Y/Q99D/R42S/S66Y/T262R/V115G/W38E); details: Binding affinity DRB1 *1101
[9] = molecular target: DRB5*0101 (Homo sapiens, UniProt P01903+Q30154); details: Binding affinity DRB5 *0101
[10] = molecular target: DR7 (DRB1*0701) (Homo sapiens, UniProt P01903+P01911, A100R/A102G/A103Q/D57E/D86V/E43K/F76Y/K127E/L162R/M171V/P40G/Q125H/Q99D/R33Q/R42Y/R54Q/S133A/S66F/T210M/V115G/Y107V/Y59L/Y89S); format: binding
[11] = molecular target: DRB1*0901 (Homo sapiens, UniProt P01903+P01911, A100R/A103E/D57H/D86V/F55Y/F60I/F76Y/I96F/K127E/L162R/M171V/P40D/Q125H/Q99R/R33Q/R42F/S133A/S66N/T210M/V115G/W38K/Y107V/Y59G/Y89S); format: binding
[12] = molecular target: DRB1*1302 (Homo sapiens, UniProt P01903+P01911, A100E/A169T/K41T/L162R/M171V/P40S/Q125H/Q178H/Q39Y/Q99D/R42S/S66N/T262R/V115G/W38E/Y61H); format: binding
[13] = molecular target: DRB1*1201 (Homo sapiens, UniProt P01903+P01911, A100R/A169T/D57E/D86V/F55L/H45Y/K41T/L162R/M171V/P40S/Q125H/Q178H/Q39Y/Q99D/R42G/S66L/T262R/V114A/V67L/W38E/Y59H/Y61H/Y89S); format: binding

DRB1*1302, sequence (P01903 26-254 limits assumed, other chains not shown): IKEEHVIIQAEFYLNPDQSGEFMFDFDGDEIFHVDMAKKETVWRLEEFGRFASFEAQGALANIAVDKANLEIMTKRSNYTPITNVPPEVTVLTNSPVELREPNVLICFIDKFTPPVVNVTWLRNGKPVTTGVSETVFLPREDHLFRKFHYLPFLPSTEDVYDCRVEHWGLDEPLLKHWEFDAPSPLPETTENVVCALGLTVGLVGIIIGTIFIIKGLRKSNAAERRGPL
DRB1*0301, sequence (P01903 26-254 limits assumed, other chains not shown): as above
DRB1*1101, sequence (P01903 26-254 limits assumed, other chains not shown): as above

For AFQVIELQMALETLS [Peptide 89.0181], the IC50 [1] was 3.11 µM, the IC50 [2] was 0.062 µM and the IC50 [3] was 0.033 µM. It also gave an IC50 [4] of 0.252 µM, an IC50 [5] of 8.16 µM and an IC50 [6] greater than 20 µM. For the same compound, the IC50 [7] was 0.349 µM, the IC50 [8] was 2.14 µM and the IC50 [9] was 1.69 µM.
Work on LVEVTLGEVPAAESPD [Peptide F160.17] yielded an IC50 [2] of 0.976 µM and an IC50 [3] of 4.02 µM.
GQVIVCPASVSSNEV [Peptide 90.0016] was tested, and the IC50 [1] was 0.024 µM, the IC50 [2] was 0.064 µM and the IC50 [10] was 0.056 µM. It also gave an IC50 [3] of 7.74 µM, an IC50 [11] of 0.197 µM and an IC50 [12] of 0.094 µM. The IC50 [6] was 0.461 µM, the IC50 [7] was 0.197 µM and the IC50 [8] was 4.82 µM. It also gave an IC50 [9] of 8.64 µM.
VSKLMSQLLNIPETH [Peptide 89.0101] was tested, and the IC50 [1] was greater than 20 µM, the IC50 [2] was 10.6 µM and the IC50 [10] was greater than 20 µM. For the same compound, the IC50 [3] was 0.922 µM, the IC50 [5] was greater than 20 µM and the IC50 [11] was greater than 20 µM. For the same compound, the IC50 [12] was 9.53 µM, the IC50 [6] was greater than 20 µM and the IC50 [7] was greater than 20 µM. It also gave an IC50 [8] greater than 20 µM and an IC50 [9] greater than 20 µM.
KWGVLILALLRYKCG [Peptide 89.0027] was tested, and the IC50 [2] was 0.584 µM, the IC50 [10] was greater than 20 µM and the IC50 [3] was greater than 20 µM. It also gave an IC50 [11] of 0.81 µM, an IC50 [12] of 0.571 µM and an IC50 [6] of 3.74 µM. For the same compound, the IC50 [8] was 0.49 µM.
In the case of LNVLKTSNAKAAMLA [Peptide 89.0003], the IC50 [1] is reported as 0.033 µM, the IC50 [2] is reported as 0.0034 µM and the IC50 [10] is reported as 0.02 µM. The IC50 [4] was 2.38 µM, the IC50 [11] was 0.197 µM and the IC50 [13] was 0.531 µM. The IC50 [12] was 0.0089 µM, the IC50 [7] was 0.509 µM and the IC50 [8] was 0.198 µM. For the same compound, the IC50 [9] was 0.768 µM.
NGVLQGITSWGSEPC [Peptide 68.0081] gave an IC50 [3] greater than 20 µM.
With CTLVAGEVDYVGLYY [Peptide 90.0252] the IC50 [1] was greater than 20 µM, the IC50 [2] was 0.776 µM and the IC50 [10] was greater than 20 µM. It also gave an IC50 [4] of 9.02 µM, an IC50 [5] greater than 20 µM and an IC50 [11] of 0.981 µM. For the same compound, the IC50 [13] was 3.63 µM, the IC50 [12] was 0.714 µM and the IC50 [6] was greater than 20 µM. For the same compound, the IC50 [7] was 0.02 µM, the IC50 [8] was 6.72 µM and the IC50 [9] was greater than 20 µM.
Compound DPRWPYLHSRLVVFH [Peptide 89.0113] has an IC50 [2] of 0.138 µM, an IC50 [10] of 0.09 µM and an IC50 [4] of 6.1 µM. For the same compound, the IC50 [5] was 19.8 µM, the IC50 [11] was 5.4 µM and the IC50 [13] was 5.93 µM. It also gave an IC50 [12] of 0.013 µM, an IC50 [7] of 0.098 µM and an IC50 [8] of 5.14 µM.
TPEWIQRQTVLQHSF [Peptide 89.0010] was tested, and the IC50 [2] was 0.08 µM, the IC50 [10] was 0.321 µM and the IC50 [4] was 0.017 µM. For the same compound, the IC50 [5] was 2 µM, the IC50 [11] was 2.87 µM and the IC50 [13] was greater than 20 µM. The IC50 [12] was 2.1 µM, the IC50 [6] was greater than 20 µM and the IC50 [7] was 0.033 µM. It also gave an IC50 [8] of 0.738 µM and an IC50 [9] of 4.12 µM.
With CC(C)C[C@H](NC(=O)[C@H](CCC(=O)O)NC(=O)[C@H](CCCCN)NC(=O)[C@H](C)N)C(=O)N[C@@H](CCCCN)C(=O)N[C@@H](Cc1ccccc1)C(=O)N[C@H](C(=O)N[C@H](C(=O)N[C@@H](CC(C)C)C(=O)N[C@H](C(=O)N[C@@H](Cc1ccccc1)C(=O)N[C@@H](CCCNC(=N)N)C(=O)N[C@@H](Cc1c[nH]cn1)C(=O)NCC(=O)N[C@@H](CC(=O)O)C(=O)O)C(C)C)[C@@H](C)O)C(C)C [Peptide 68.0025] the IC50 [3] was greater than 20 µM.
Compound LIRMECAIMYTARQM [Peptide 90.0022] has an IC50 [2] of 0.433 µM, an IC50 [10] of 0.473 µM and an IC50 [4] of 0.815 µM. The IC50 [5] was 3.06 µM, the IC50 [11] was 4.12 µM and the IC50 [13] was 0.201 µM. The IC50 [12] was 0.241 µM, the IC50 [6] was 1.48 µM and the IC50 [7] was 0.158 µM. The IC50 [8] was 0.738 µM and the IC50 [9] was 6.47 µM.
Work on MAIFGVNPTVAEGFK [Peptide 89.0081] yielded an IC50 [2] of 0.075 µM, an IC50 [4] of 0.036 µM and an IC50 [5] of 1.09 µM. It also gave an IC50 [11] of 1.56 µM, an IC50 [13] of 1.2 µM and an IC50 [12] of 0.035 µM. For the same compound, the IC50 [7] was 0.426 µM and the IC50 [8] was 0.041 µM.
